Measurements: publication PMC6437697 (Journal of Medicinal Chemistry, 2019)

Assays:
Assay in all cases: KINOMEscan
Format in all cases: binding
Conditions in all cases: read-out: % control activity remaining
FER = biological target: T1, FER (Homo sapiens, UniProt P16591)
T1 construct: purchased Eurofins DiscoverX KINOMEscan

ZAK = biological target: T2, ZAK (Homo sapiens, UniProt Q9NYL2)
T2 construct: purchased Eurofins DiscoverX KINOMEscan

PCTK1 = biological target: T3, PCTK1 (Homo sapiens, UniProt Q00536)
T3 construct: purchased Eurofins DiscoverX KINOMEscan

PIK3CD = biological target: T4, PIK3CD (Homo sapiens, UniProt O00329)
T4 construct: purchased Eurofins DiscoverX KINOMEscan
T4 sequence (O00329 1-1044): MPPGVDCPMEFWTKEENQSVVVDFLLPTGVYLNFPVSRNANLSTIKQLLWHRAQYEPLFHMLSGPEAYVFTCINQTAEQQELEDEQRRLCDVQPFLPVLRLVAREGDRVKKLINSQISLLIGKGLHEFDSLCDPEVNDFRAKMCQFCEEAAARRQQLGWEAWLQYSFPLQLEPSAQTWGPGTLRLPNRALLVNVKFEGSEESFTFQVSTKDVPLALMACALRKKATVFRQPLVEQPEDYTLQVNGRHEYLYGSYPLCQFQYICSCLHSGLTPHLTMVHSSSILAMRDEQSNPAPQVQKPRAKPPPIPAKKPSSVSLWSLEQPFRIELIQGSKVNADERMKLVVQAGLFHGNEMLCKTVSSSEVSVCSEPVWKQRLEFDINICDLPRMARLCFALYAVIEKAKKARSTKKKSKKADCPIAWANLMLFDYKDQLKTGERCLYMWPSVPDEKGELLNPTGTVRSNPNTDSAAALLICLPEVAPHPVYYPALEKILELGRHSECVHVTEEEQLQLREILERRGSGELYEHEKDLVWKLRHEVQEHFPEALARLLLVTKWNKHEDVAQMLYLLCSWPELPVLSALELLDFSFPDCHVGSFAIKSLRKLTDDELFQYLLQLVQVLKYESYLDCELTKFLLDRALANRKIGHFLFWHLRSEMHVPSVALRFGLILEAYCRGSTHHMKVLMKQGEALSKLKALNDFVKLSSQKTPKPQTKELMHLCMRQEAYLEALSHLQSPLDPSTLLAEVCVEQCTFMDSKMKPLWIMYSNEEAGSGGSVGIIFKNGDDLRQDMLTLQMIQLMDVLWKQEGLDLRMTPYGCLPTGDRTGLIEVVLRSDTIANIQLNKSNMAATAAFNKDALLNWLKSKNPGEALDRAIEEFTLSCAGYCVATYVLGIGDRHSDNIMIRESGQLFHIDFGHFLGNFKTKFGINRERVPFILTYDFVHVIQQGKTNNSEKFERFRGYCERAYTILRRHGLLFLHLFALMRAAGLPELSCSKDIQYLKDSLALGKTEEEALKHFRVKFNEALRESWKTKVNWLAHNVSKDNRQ

FLT3 = biological target: T5, FLT3 (Homo sapiens, UniProt P36888)
T5 construct: purchased Eurofins DiscoverX KINOMEscan
T5 sequence (P36888 27-993): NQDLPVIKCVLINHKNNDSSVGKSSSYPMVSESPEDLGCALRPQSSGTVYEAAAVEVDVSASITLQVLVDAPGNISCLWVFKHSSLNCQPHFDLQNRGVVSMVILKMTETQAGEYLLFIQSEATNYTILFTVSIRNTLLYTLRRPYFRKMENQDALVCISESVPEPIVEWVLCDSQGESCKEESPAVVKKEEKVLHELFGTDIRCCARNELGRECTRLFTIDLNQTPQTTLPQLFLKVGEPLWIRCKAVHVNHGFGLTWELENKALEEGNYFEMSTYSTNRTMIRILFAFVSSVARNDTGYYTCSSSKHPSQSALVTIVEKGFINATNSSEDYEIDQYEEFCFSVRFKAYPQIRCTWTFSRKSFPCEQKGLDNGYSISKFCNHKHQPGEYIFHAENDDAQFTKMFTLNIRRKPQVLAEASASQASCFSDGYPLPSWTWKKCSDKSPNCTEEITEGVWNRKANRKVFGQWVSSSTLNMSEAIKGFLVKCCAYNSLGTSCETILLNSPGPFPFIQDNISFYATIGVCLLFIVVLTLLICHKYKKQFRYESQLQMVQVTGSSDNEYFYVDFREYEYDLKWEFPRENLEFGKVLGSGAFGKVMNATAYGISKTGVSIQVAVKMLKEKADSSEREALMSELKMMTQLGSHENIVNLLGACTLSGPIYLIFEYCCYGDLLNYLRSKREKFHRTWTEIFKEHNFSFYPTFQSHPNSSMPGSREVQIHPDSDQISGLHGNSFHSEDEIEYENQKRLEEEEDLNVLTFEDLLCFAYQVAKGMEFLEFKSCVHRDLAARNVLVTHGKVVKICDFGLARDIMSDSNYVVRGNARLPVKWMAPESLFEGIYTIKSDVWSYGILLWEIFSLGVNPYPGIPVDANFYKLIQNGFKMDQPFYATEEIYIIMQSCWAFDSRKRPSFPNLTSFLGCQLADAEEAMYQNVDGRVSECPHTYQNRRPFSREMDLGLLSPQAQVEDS

CAMK2B = biological target: T6, CAMK2B (Homo sapiens, UniProt Q13554)
T6 construct: purchased Eurofins DiscoverX KINOMEscan

CDK11 = biological target: T7, CDK11 (Homo sapiens, UniProt Q9BWU1)
T7 construct: purchased Eurofins DiscoverX KINOMEscan

DCAMKL1 = biological target: T8, DCAMKL1 (Homo sapiens, UniProt O15075)
T8 construct: purchased Eurofins DiscoverX KINOMEscan
T8 sequence (O15075 1-740): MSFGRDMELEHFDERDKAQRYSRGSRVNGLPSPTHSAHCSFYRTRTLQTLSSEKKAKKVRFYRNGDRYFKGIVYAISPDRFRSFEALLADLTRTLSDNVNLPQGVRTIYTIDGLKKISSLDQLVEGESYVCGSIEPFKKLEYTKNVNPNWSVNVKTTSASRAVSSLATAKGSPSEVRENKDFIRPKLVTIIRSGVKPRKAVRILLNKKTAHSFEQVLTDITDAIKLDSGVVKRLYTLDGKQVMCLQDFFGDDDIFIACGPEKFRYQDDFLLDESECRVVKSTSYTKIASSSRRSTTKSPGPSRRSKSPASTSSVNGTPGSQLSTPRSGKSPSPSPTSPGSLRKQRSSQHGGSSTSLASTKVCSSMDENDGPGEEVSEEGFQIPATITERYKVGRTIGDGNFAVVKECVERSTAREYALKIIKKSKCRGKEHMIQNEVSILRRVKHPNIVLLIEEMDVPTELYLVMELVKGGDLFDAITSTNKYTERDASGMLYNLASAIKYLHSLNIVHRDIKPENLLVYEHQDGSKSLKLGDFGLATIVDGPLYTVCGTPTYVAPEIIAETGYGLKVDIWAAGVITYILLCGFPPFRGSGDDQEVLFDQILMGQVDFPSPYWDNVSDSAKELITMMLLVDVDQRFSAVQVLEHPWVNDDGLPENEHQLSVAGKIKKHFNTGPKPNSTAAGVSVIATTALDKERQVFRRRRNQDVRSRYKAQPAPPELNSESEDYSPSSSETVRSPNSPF

T6 sequence (Q13554 whole entry): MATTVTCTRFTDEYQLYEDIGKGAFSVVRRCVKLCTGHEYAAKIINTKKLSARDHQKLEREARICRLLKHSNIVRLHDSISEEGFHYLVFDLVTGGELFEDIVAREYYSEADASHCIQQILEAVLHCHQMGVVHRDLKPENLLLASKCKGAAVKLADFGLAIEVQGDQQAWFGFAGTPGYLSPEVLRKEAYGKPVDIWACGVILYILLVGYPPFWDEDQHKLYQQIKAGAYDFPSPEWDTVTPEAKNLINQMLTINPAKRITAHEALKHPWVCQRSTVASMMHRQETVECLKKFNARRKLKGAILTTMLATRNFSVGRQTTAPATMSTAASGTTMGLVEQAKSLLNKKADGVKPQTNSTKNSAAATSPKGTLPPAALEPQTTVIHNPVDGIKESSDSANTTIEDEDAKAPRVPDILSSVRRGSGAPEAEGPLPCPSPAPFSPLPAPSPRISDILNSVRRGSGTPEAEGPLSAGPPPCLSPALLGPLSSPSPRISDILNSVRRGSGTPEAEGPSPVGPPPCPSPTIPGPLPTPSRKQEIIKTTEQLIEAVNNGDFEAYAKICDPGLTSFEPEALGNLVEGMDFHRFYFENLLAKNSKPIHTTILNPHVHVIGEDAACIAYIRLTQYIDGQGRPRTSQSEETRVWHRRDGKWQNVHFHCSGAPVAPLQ
T3 sequence (Q00536 whole entry): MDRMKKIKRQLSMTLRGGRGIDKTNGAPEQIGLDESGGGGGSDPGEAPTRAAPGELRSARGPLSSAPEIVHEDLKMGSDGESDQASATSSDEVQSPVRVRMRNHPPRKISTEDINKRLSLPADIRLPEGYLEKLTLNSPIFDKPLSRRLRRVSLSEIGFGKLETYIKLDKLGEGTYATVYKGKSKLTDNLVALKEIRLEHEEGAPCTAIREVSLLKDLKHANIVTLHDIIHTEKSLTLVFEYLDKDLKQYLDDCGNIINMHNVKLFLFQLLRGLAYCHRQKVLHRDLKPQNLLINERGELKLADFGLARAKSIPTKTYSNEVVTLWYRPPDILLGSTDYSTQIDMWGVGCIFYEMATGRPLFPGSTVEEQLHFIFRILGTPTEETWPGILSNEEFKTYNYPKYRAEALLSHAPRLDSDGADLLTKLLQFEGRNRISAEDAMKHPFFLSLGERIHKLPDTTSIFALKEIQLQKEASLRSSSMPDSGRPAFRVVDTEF
T1 sequence (P16591 whole entry): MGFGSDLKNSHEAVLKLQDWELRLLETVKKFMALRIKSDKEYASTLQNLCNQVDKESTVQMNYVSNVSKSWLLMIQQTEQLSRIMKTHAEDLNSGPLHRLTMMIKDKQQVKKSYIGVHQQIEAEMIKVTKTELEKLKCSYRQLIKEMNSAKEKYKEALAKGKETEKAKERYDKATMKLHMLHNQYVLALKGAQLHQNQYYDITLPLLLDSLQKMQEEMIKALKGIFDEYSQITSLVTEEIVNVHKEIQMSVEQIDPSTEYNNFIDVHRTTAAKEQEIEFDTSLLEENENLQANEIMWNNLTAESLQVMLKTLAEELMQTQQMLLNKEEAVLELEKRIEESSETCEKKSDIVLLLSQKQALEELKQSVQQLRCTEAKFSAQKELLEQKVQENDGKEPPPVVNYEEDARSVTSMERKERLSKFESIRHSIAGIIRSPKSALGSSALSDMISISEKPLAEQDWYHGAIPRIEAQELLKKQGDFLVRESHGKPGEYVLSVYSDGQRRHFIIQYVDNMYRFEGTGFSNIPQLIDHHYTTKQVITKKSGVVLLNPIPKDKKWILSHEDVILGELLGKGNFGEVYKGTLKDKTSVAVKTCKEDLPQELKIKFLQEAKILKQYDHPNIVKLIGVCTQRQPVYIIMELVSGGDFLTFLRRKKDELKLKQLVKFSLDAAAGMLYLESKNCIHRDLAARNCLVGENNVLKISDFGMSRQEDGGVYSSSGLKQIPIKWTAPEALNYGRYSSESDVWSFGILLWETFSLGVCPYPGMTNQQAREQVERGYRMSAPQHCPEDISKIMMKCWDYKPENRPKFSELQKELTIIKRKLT
T2 sequence (Q9NYL2 whole entry): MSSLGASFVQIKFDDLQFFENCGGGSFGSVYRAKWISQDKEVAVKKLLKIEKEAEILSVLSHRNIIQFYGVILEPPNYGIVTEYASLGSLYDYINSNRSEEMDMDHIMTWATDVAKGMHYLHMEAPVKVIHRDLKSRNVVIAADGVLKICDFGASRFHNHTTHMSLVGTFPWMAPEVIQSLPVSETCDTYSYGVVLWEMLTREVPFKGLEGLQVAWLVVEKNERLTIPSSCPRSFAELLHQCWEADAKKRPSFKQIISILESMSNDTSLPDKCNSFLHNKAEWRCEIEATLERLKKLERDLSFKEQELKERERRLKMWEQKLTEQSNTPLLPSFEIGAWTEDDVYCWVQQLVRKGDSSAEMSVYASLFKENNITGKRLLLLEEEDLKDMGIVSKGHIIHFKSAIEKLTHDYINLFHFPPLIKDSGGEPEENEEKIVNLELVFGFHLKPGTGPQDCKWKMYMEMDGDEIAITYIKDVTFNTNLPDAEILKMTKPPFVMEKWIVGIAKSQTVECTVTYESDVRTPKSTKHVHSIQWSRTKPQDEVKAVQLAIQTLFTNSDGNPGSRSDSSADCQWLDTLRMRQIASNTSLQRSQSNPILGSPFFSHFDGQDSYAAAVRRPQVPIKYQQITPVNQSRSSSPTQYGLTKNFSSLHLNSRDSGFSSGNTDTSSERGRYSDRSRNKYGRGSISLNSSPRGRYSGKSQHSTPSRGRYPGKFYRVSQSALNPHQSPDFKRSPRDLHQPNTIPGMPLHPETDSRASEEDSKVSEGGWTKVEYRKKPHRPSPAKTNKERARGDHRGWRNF
T7 sequence (Q9BWU1 whole entry): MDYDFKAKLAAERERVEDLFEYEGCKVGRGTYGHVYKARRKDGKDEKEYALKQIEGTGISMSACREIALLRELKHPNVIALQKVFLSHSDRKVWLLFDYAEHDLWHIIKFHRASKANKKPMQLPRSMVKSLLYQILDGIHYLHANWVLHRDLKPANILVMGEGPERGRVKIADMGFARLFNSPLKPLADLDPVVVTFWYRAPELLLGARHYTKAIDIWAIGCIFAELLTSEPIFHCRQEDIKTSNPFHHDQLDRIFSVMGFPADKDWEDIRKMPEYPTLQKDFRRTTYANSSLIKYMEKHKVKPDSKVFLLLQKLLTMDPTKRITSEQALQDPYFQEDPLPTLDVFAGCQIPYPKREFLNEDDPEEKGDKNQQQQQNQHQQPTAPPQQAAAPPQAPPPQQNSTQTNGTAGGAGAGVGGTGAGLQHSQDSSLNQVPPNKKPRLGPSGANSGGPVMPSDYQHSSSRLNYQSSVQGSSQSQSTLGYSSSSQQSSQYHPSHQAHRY

Compound	remaining binding at 1 µM (FER)	remaining binding at 1 µM (ZAK)	remaining binding at 1 µM (PCTK1)	remaining binding at 1 µM (PIK3CD)	remaining binding at 1 µM (FLT3)	remaining binding at 1 µM (CAMK2B)	remaining binding at 1 µM (CDK11)	remaining binding at 1 µM (DCAMKL1)
Clc1cc(NCC2CC2)c2ncc(-c3ccc4[nH]ncc4c3)n2n1 [compound 2, 6-Chloro-N-(cyclopropylmethyl)-3-(1H-indazol-5-yl)imidazo[1,2-b]pyridazin-8-amine]	98%	86%	97%	92%	2.5%	90%	97%	99%
O=C(CN1CCOCC1)N[C@H]1CC[C@H](Nc2cc(Cl)nn3c(-c4ccc5[nH]ncc5c4)cnc23)CC1 [compound 26]	100%	87%	87%	90%	3%	69%	98%	100%
CN1CCC(CNc2cc(Cl)nn3c(-c4cc5nc(Nc6ccccc6)[nH]c5cc4F)cnc23)CC1 [compound 31, 6-Chloro-3-(6-fluoro-2-(phenylamino)-1H-benzo[d]imidazol-5-yl)-N-((1-methylpiperidin-4-yl)methyl)imidazo[1,2-b]pyridazin-8-amine]	82%	93%	37%	75%	83%	100%	91%	81%
